4 substances from US11214803B2, “Modulators of YAP1 expression” (Ionis Pharmaceuticals, Inc., priority 2019, dated 2022) can be followed below.

The test system of one series is NCI H292 cells. In words: Cell proliferation assay in NCI H292 cells, CellTiter-Glo (Example 32). Type of series: cell-based, human. Particulars: free uptake, approximately 144 hours. Here is the method:
Modified oligonucleotides described in the studies above were tested at various doses in mucoepidermoid pulmonary carcinoma cell line […]. A control oligonucleotide 792169 was also tested.
Cultured NCI H292 cells at a density of 1000 cells/well were treated using free uptake with modified oligonucleotides diluted to concentrations described in the tables below. After approximately 144 hours, cell proliferation was measured using the luminescent cell viability CellTiter-Glo® 2.0 Assay (Promega). Results are presented in the tables below as percent control of the amount of luminescence in samples treated with modified oligonucleotides relative to untreated control cells (% UTC).

Series [1] deals with Yap1 mRNA. In words: Yap1 mRNA in BICR-22 cells, RNA analysis (Example 35). The series is classed as cell-based, human. Particulars: free uptake, approximately 48 hours. Here is the method:
Modified oligonucleotides described in the studies above were tested at various doses in tongue squamous carcinoma (lymph node metastasis) cell line BICR-22. A control oligonucleotide 792169, described herein above, was also tested.
Cultured BICR-22 cells at a density of 5000 cells per well were treated using free uptake with modified oligonucleotides diluted to concentrations described in the tables below. After approximately 48 hours, Yap1 mRNA levels were measured as previously described using the Human Yap1 primer-probe set RTS4814. Yap1 mRNA levels were normalized to actin-beta content, as measured by primer probe set RTS5002. Results are presented in the tables below as percent control of the amount of Yap1 mRNA relative to untreated control cells (% UTC).

The test system of series [2] is Yap1 mRNA. In words: Yap1 mRNA in Detroit-562 cells, RNA analysis (Example 38). Type of series: cell-based, human. Particulars: free uptake, approximately 48 hours. The procedure: Modified oligonucleotides described in the studies above were tested at various doses in pharynx carcinoma cell line Detroit-562. A control oligonucleotide 792169, described herein above, was also tested.
Cultured Detroit-562 cells at a density of 5000 cells per well were treated using free uptake with modified oligonucleotides diluted to concentrations described in the tables below. After approximately 48 hours, Yap1 mRNA levels were measured as previously described using the Human Yap1 primer-probe set RTS4814. Yap1 mRNA levels were normalized to actin-beta content, as measured by primer probe set RTS5002. Results are presented in the tables below as percent control of the amount of Yap1 mRNA relative to untreated control cells (% UTC).

The test system of a further series is SCC-9 cells. In words: Cell proliferation assay in SCC-9 cells, CellTiter-Glo (Example 40). Particulars: free uptake, approximately 144 hours. Type of series: cell-based, human. The procedure:
Modified oligonucleotides described in the studies above were tested at various doses in tongue squamous cell carcinoma cell line SCC-9. A control oligonucleotide 792169, described herein above, was also tested.
Cultured SCC-9 cells at a density of 1000 cells/well were treated using free uptake with modified oligonucleotides diluted to concentrations described in the tables below. After approximately 144 hours, cell proliferation was measured using the luminescent cell viability CellTiter-Glo® 2.0 Assay (Promega). Results are presented in the tables below as percent control of the amount of luminescence in samples treated with modified oligonucleotides relative to untreated control cells (% UTC).

For another series, the system named is SNU-899 cells. In words: Cell proliferation assay in SNU-899 cells, CellTiter-Glo (Example 43). The series is classed as cell-based, human. Particulars: free uptake, approximately 144 hours. Here is the method: Modified oligonucleotides described in the studies above were tested at various doses in laryngeal squamous cell carcinoma cell line SNU-899. A control oligonucleotide 792169, described herein above, was also tested.
Cultured SNU-899 cells at a density of 1000 cells/well were treated using free uptake with modified oligonucleotides diluted to concentrations described in the tables below. After approximately 144 hours, cell proliferation was measured using the luminescent cell viability CellTiter-Glo® 2.0 Assay (Promega). Results are presented in the tables below as percent control of the amount of luminescence in samples treated with modified oligonucleotides relative to untreated control cells (% UTC).

The test system of the next series is SNU-1076 cells. In words: Cell proliferation assay in SNU-1076 cells, CellTiter-Glo (Example 45). Type of series: cell-based, human. Particulars: free uptake, approximately 144 hours. The procedure: Modified oligonucleotides described in the studies above were tested at various doses in upper aerodigestive tract/laryngeal squamous cell carcinoma line SNU-1076. A control oligonucleotide 792169, described herein above, was also tested.
Cultured SNU-1076 cells at a density of 1000 cells/well were treated using free uptake with modified oligonucleotides diluted to concentrations described in the tables below. After approximately 144 hours, cell proliferation was measured using the luminescent cell viability CellTiter-Glo® 2.0 Assay (Promega). Results are presented in the tables below as percent control of the amount of luminescence in samples treated with modified oligonucleotides relative to untreated control cells (% UTC).

A short description of series [3]: Cynomolgus monkey tolerability, kidney and liver function markers (Example 34). Particulars: cynomolgus monkeys, 35 mg/kg subcutaneously, day 44.

Strand notation (5' to 3'): a small letter for the sugar, then the base; units joined by * are phosphorothioate-linked, units joined directly phosphodiester-linked; [ ] holds rarer units or linkages, { } end groups; capitals alone tell only the bases. k = constrained ethyl (cEt); [5mC] = 5-methylcytosine; d = 2'-deoxy (DNA)

With “715487 (kA*kT*kT*dA*d[5mC]*dT*dT*d[5mC]*dA*dT*dA*dG*d[5mC]*kT*kT*kA) [compound 715487]”, the “Antiproliferative effect (cell proliferation, luminescence)” value (“Antiproliferative effect” below) in the series on NCI H292 cells (0.04 μM) turned out to be 87 % UTC; with NCI H292 cells (0.2 μM), 90 % UTC; in the series on NCI H292 cells (1 μM), 69 % UTC; in the series with NCI H292 cells (5 μM), 20 % UTC; in the series with SCC-9 cells (0.04 μM), 97 % UTC; with SCC-9 cells (0.2 μM), 73 % UTC. Further, the “Antiproliferative effect” value is 51 % UTC in the series on SCC-9 cells (1 μM); 34 % UTC in the series on SCC-9 cells (5 μM); 82 % UTC with SNU-899 cells (0.04 μM); 78 % UTC in the series on SNU-899 cells (0.2 μM); 71 % UTC in the series on SNU-899 cells (1 μM); 62 % UTC with SNU-899 cells (5 μM). Moreover, the “Antiproliferative effect” value in the series on SNU-1076 cells (0.04 μM) came out at 91 % UTC; in the series on SNU-1076 cells (0.2 μM), 90 % UTC; in the series on SNU-1076 cells (1 μM) it was 86 % UTC; in the series on SNU-1076 cells (5 μM) it was 79 % UTC. The “human Yap1 mRNA expression” value is 82 % UTC in the series on Yap1 mRNA [1] (0.04 μM); 45 % UTC with Yap1 mRNA [1] (0.2 μM); 23 % UTC in the series with Yap1 mRNA [1] (1 μM); 13 % UTC in the series with Yap1 mRNA [1] (5 μM); 77 % UTC with Yap1 mRNA [2] (0.04 μM); 29 % UTC in the series on Yap1 mRNA [2] (0.2 μM). Also, the results for the “human Yap1 mRNA expression” value in the series with Yap1 mRNA [2] (1 μM) and with Yap1 mRNA [2] (5 μM) were 10 % UTC and 5 % UTC, respectively.

In series [3], “1076453 (GTAATATTGCAATCTG; 3-10-3 cEt gapmer, further chemistry not given here) [compound 1076453]” gave an ALB of 3.9 g/dL, an ALP of 1173 IU/L, an ALT of 53 IU/L and an AST of 76 IU/L. Also, in series [3], the BUN is 27 mg/dL, the CREA was determined as 0.9 mg/dL, the GGT is 78 IU/L and the GLO came to 3.1 g/dL. In series [3], the GLU stood at 89 mg/dL, the HDL is given as 98 mg/dL, the LDL came to 66 mg/dL and the TBIL came out at 0.2 mg/dL. Besides, in series [3], the TG is 29 mg/dL and the TP came to 7.0 g/dL.

In series [3], “958499 (ATTAGAGTATGTGGCA; 3-10-3 cEt gapmer, further chemistry not given here) [compound 958499]” registered an ALB of 4.0 g/dL, an ALP of 1449 IU/L, an ALT of 67 IU/L and an AST of 73 IU/L. In series [3], the BUN is recorded as 24 mg/dL, the CREA came out at 0.9 mg/dL, the GGT was determined as 67 IU/L and the GLO is recorded as 3.2 g/dL. In series [3], this substance registered a GLU of 83 mg/dL, an HDL of 89 mg/dL, an LDL of 46 mg/dL and a TBIL of 0.2 mg/dL. For the same substance, in series [3], the TG is listed as 41 mg/dL and the TP turned out to be 7.2 g/dL.

In series [3], “1198439 (AGTGTATGTCAGAAGA; sugar, 5-methylcytosine, phosphorothioate modifications, further chemistry not given here) [compound 1198439]” showed an ALB of 4.0 g/dL, an ALP of 1298 IU/L, an ALT of 40 IU/L and an AST of 65 IU/L. In series [3], this substance registered a BUN of 24 mg/dL, a CREA of 0.9 mg/dL, a GGT of 63 IU/L and a GLO of 2.8 g/dL. In series [3], the GLU was 115 mg/dL, the HDL amounted to 82 mg/dL, the LDL was 59 mg/dL and the TBIL is given as 0.2 mg/dL. Besides, in series [3], the TG is listed as 28 mg/dL and the TP was determined as 6.8 g/dL.
